From patent US9504729B2, “Antiangiogenic small molecules and methods of use” (The United States of America, as represented by the …, priority 2009, dated 2016)

Test system: angiogenesis genes in dermal microvascular endothelial cells
Experiment: Real time RT-PCR of angiogenesis gene expression during endothelial tube formation
Format: cell-based
Settings: 1 μM SM, 24 hours
Experimental: For gene expression studies, three independent experiments were run for each SM tested. 90.000 cells/well (6 wells/treatment) of dermal microvascular endothelial cells (Lonza, Walkersville, Md.) were seeded on polymerized GELTREX™ gel matrix (Invitrogen, Carlsbad, Calif.) in 24 well plates. Wells were immediately treated with the same volume of 1 μM SM or PBS. After 24 hours incubation at 37° C. and 5% CO2, cells were extracted using Cell Recovery Solution (BD Biosciences, San Jose, Calif., Cat. #354253). Total RNA was extracted with the RNeasy Mini Kit (Qiagen, Valencia, Calif., Cat. #74104), and retrotranscribed using […]® First-Strand reverse transcriptase (Invitrogen, Carlsbad, Calif., Cat. #11904-018). The real time PCR reactions were performed in an Opticon 2 cycler (MJ Research, Waltham, Mass.). Amplification was performed in a final volume of 25 μl, containing 2 μl cDNA (1:10 dilution from the reversed transcribed reaction) and 2 μl of primer mixture (10 μM each of forward and reverse primers). Samples were amplified as follows: after initial denaturation at 95 C for 2 minutes, reactions were run for 46 cycles at 95° C. for 30 seconds, 60° C. for 30 seconds, and 72° C. for 45 seconds. Fluorescence was measured in every cycle and a melting curve was run after the PCR by increasing temperature from 50 to 96° C. (in 0.5° C. increments). A defined single peak was obtained for all amplicons, thus confirming the specificity of the amplification.
The genes that were monitored were selected based on their relevance to the angiogenesis process. All experiments were done in triplicate. The results are shown in the volcano plots of FIG. 17. Log 2 fold-change is presented in the X-axis and log 10 P value in the Y-axis.

## COC(=O)C1CC(=O)C(C(=O)OC)CC1=O (centres unmarked) [Compound 122567]
  Log2 fold-change of gene expression: 1839: 1.0
  Log2 fold-change of gene expression: 4247: 0.3
  Log2 fold-change of gene expression: 5569: 0.8
  Log2 fold-change of gene expression: 8131: 0.1
  Log2 fold-change of gene expression: 9569: −2.2
  Log2 fold-change of gene expression: 10988: 1.2
  Log2 fold-change of gene expression: 23001: −0.5
  Log2 fold-change of gene expression: 55332: −1.0
  Log2 fold-change of gene expression: 57722: 0.1
  Log2 fold-change of gene expression: 58488: 1.5
  Log2 fold-change of gene expression: 90780: −1.9
  Log2 fold-change of gene expression: 134265: −0.2
  Log2 fold-change of gene expression: AKT1: −1.6
  Log2 fold-change of gene expression: ANGPT1: 1.6
  Log2 fold-change of gene expression: ANGPT2: −0.9
  Log2 fold-change of gene expression: ANGPTL3: −1.7
  Log2 fold-change of gene expression: ANGPTL4: −0.4
  Log2 fold-change of gene expression: ANPEP: −1.2
  Log2 fold-change of gene expression: ANTXR1: −3.5
  Log2 fold-change of gene expression: APOE: 0.8
  Log2 fold-change of gene expression: ARHGEF1: −5.0
  Log2 fold-change of gene expression: Acvrl1: −1.3
  Log2 fold-change of gene expression: Adcy4: −0.4
  Log2 fold-change of gene expression: BAL1: 0.2
  Log2 fold-change of gene expression: BMP1: 0.9
  Log2 fold-change of gene expression: C1orf54: −3.4
  Log2 fold-change of gene expression: CALD1: 2.3
  Log2 fold-change of gene expression: CCL2: 2.5
  Log2 fold-change of gene expression: CCL11: 0.6
  Log2 fold-change of gene expression: CD248: 1.2
  Log2 fold-change of gene expression: CDH5: −1.9
  Log2 fold-change of gene expression: CENTD3: 1.1
  Log2 fold-change of gene expression: CLIC1: 0.9
  Log2 fold-change of gene expression: COL4A3: 1.9
  Log2 fold-change of gene expression: COL18A1: 1.6
  Log2 fold-change of gene expression: COMT: −1.5
  Log2 fold-change of gene expression: CST4: 1.3
  Log2 fold-change of gene expression: CTTNBP2NL: −0.9
  Log2 fold-change of gene expression: CXCL3: 4.0
  Log2 fold-change of gene expression: CXCL5: 4.3
  Log2 fold-change of gene expression: CXCL6: 1.1
  Log2 fold-change of gene expression: CXCL9: 1.6
  Log2 fold-change of gene expression: CXCL10: 3.7
  Log2 fold-change of gene expression: Calcr1: −4.0
  Log2 fold-change of gene expression: Caskin2: −2.3
  Log2 fold-change of gene expression: Ccbp2: 1.4
  Log2 fold-change of gene expression: Cldn5: 0.0
  Log2 fold-change of gene expression: DGKG: 2.0
  Log2 fold-change of gene expression: DKK3: −1.9
  Log2 fold-change of gene expression: DLL4: −8.7
  Log2 fold-change of gene expression: DUT: −1.8
  Log2 fold-change of gene expression: EFNA1: −0.3
  Log2 fold-change of gene expression: EFNA3: −0.4
  Log2 fold-change of gene expression: EFNB2: −4.0
  Log2 fold-change of gene expression: EGF: −0.3
  Log2 fold-change of gene expression: ENG: −1.7
  Log2 fold-change of gene expression: EPHB4: −0.5
  Log2 fold-change of gene expression: EREG: 1.9
  Log2 fold-change of gene expression: ESAM1: −2.9
  Log2 fold-change of gene expression: EXTL3: 0.3
  Log2 fold-change of gene expression: Egf17: −2.6
  Log2 fold-change of gene expression: Ehd4: −0.8
  Log2 fold-change of gene expression: Entpd1: −0.3
  Log2 fold-change of gene expression: Epas1: 0.9
  Log2 fold-change of gene expression: EphB1: 0.8
  Log2 fold-change of gene expression: Erg: 2.4
  Log2 fold-change of gene expression: FGF1: 1.9
  Log2 fold-change of gene expression: FGF2: −0.7
  Log2 fold-change of gene expression: FGFR3: 1.2
  Log2 fold-change of gene expression: FIGF: −0.1
  Log2 fold-change of gene expression: FLT1: −4.4
  Log2 fold-change of gene expression: Fgd5: −1.5
  Log2 fold-change of gene expression: GPCR124: −3.7
  Log2 fold-change of gene expression: GRRP1: −0.3
  Log2 fold-change of gene expression: Grp116: −2.3
  Log2 fold-change of gene expression: HAND2: 0.4
  Log2 fold-change of gene expression: HGF: 1.3
  Log2 fold-change of gene expression: HIF1A: −3.1
  Log2 fold-change of gene expression: HPSE: −8.3
  Log2 fold-change of gene expression: Hspa12b: −3.4
  Log2 fold-change of gene expression: ID1: −0.2
  Log2 fold-change of gene expression: ID3: −0.3
  Log2 fold-change of gene expression: IFNA1: 1.1
  Log2 fold-change of gene expression: IFNB1: 1.2
  Log2 fold-change of gene expression: IFNG: 8.3
  Log2 fold-change of gene expression: IGF1: −0.1
  Log2 fold-change of gene expression: IL1B: −0.1
  Log2 fold-change of gene expression: IL6: 14.4
  Log2 fold-change of gene expression: IL8: 7.4
  Log2 fold-change of gene expression: ITGAV: −2.7
  Log2 fold-change of gene expression: ITGB3: −1.4
  Log2 fold-change of gene expression: Icam1: 0.0
  Log2 fold-change of gene expression: Icam2: 0.1
  Log2 fold-change of gene expression: JAG1: 0.6
  Log2 fold-change of gene expression: KDR: −2.3
  Log2 fold-change of gene expression: Kifc1: 1.1
  Log2 fold-change of gene expression: LAMAS5: −1.1
  Log2 fold-change of gene expression: LECT1: 0.3
  Log2 fold-change of gene expression: LEP: 0.2
  Log2 fold-change of gene expression: Lasts2: 4.8
  Log2 fold-change of gene expression: Lrrk1: −0.5
  Log2 fold-change of gene expression: MDK: −0.9
  Log2 fold-change of gene expression: MMP2: 0.3
  Log2 fold-change of gene expression: MMP9: 0.9
  Log2 fold-change of gene expression: MMP11: 1.3
  Log2 fold-change of gene expression: MRC2: 0.7
  Log2 fold-change of gene expression: Mmm2: −3.5
  Log2 fold-change of gene expression: Myo1b: −2.9
  Log2 fold-change of gene expression: NID1: −6.3
  Log2 fold-change of gene expression: NM023516: 0.2
  Log2 fold-change of gene expression: NRP1: −3.0
  Log2 fold-change of gene expression: NRP2: −4.3
  Log2 fold-change of gene expression: Notch4: −1.1
  Log2 fold-change of gene expression: Npr3: 1.5
  Log2 fold-change of gene expression: PALD: −0.5
  Log2 fold-change of gene expression: PDCD2: −0.4
  Log2 fold-change of gene expression: PDGFA: −1.7
  Log2 fold-change of gene expression: PECAM1: −2.7
  Log2 fold-change of gene expression: PGF: −4.9
  Log2 fold-change of gene expression: PLAU: −0.1
  Log2 fold-change of gene expression: PLG: −1.5
  Log2 fold-change of gene expression: PNMT: 1.1
  Log2 fold-change of gene expression: PROK2: 1.3
  Log2 fold-change of gene expression: PTGS1: 0.8
  Log2 fold-change of gene expression: PTPRCAP: 0.0
  Log2 fold-change of gene expression: Pltp: 1.5
  Log2 fold-change of gene expression: Ptprb: 0.5
  Log2 fold-change of gene expression: Ptprm: −0.4
  Log2 fold-change of gene expression: RAMP2: −5.8
  Log2 fold-change of gene expression: RASD2: 0.5
  Log2 fold-change of gene expression: Rasip1: −1.2
  Log2 fold-change of gene expression: S1PR1: −0.7
  Log2 fold-change of gene expression: SERPINF1: 0.2
  Log2 fold-change of gene expression: SPHK1: 0.9
  Log2 fold-change of gene expression: STAB1: −1.7
  Log2 fold-change of gene expression: Sdc4: 0.4
  Log2 fold-change of gene expression: Sdpr: 1.6
  Log2 fold-change of gene expression: Slc43a3: 1.8
  Log2 fold-change of gene expression: Slco2a1: −0.6
  Log2 fold-change of gene expression: TEK: 0.3
  Log2 fold-change of gene expression: TGFA: 2.0
  Log2 fold-change of gene expression: TGFB1: −1.2
  Log2 fold-change of gene expression: TGFB2: 1.2
  Log2 fold-change of gene expression: TGFBR1: 1.2
  Log2 fold-change of gene expression: THBS1: 0.1
  Log2 fold-change of gene expression: THBS2: 1.2
  Log2 fold-change of gene expression: THY1: −9.4
  Log2 fold-change of gene expression: TIMP1: −1.4
  Log2 fold-change of gene expression: TIMP2: −1.4
  Log2 fold-change of gene expression: TIMP3: −4.3
  Log2 fold-change of gene expression: TNF: −0.2
  Log2 fold-change of gene expression: TNS1: 0.0
  Log2 fold-change of gene expression: TNS3: 2.0
  Log2 fold-change of gene expression: TRA2B: −1.6
  Log2 fold-change of gene expression: TYMP: −0.3
  Log2 fold-change of gene expression: VEGFA: 4.9
  Log2 fold-change of gene expression: VEGFC: 1.8
  Log2 fold-change of gene expression: VGLL4: −3.5
  Log2 fold-change of gene expression: Vwf: −3.5
  Log2 fold-change of gene expression: copa: 0.1
  Log2 fold-change of gene expression: itbp4: −1.9
  Log2 fold-change of gene expression: ralb: 0.3
  Log2 fold-change of gene expression: stard9: 0.5
1st listing (r49)
  Log2 fold-change of gene expression: B2M: 0.1
1st listing (r50)
  Log2 fold-change of gene expression: HPRT1: 0.0
1st listing (r51)
  Log2 fold-change of gene expression: RPL13A: 0.7
1st listing (r52)
  Log2 fold-change of gene expression: GADPH: −0.7
1st listing (r53)
  Log2 fold-change of gene expression: ACTB: −1.0
1st listing (r74)
  Log2 fold-change of gene expression: PLXDC1: 0.7
1st listing (r91)
  Log2 fold-change of gene expression: TNFAIP2: −1.0
1st listing (r95)
  Log2 fold-change of gene expression: Robo4: 0.0
1st listing (r134)
  Log2 fold-change of gene expression: 151516: 1.1
2nd listing (r92)
  Log2 fold-change of gene expression: TNFAIP2: −1.1
2nd listing (r97)
  Log2 fold-change of gene expression: B2M: −0.2
2nd listing (r98)
  Log2 fold-change of gene expression: HPRT1: 0.0
2nd listing (r99)
  Log2 fold-change of gene expression: RPL13A: 1.2
2nd listing (r100)
  Log2 fold-change of gene expression: GADPH: −0.8
2nd listing (r101)
  Log2 fold-change of gene expression: ACTB: −1.0
2nd listing (r104)
  Log2 fold-change of gene expression: PLXDC1: −1.7
2nd listing (r139)
  Log2 fold-change of gene expression: 151516: 1.3
2nd listing (r188)
  Log2 fold-change of gene expression: Robo4: 1.2
3rd listing (r145)
  Log2 fold-change of gene expression: B2M: −0.2
3rd listing (r146)
  Log2 fold-change of gene expression: HPRT1: −0.6
3rd listing (r147)
  Log2 fold-change of gene expression: RPL13A: 0.9
3rd listing (r148)
  Log2 fold-change of gene expression: GADPH: −0.7
3rd listing (r149)
  Log2 fold-change of gene expression: ACTB: −0.5
4th listing (r193)
  Log2 fold-change of gene expression: B2M: 0.3
4th listing (r194)
  Log2 fold-change of gene expression: HPRT1: −0.2
4th listing (r195)
  Log2 fold-change of gene expression: RPL13A: 1.3
4th listing (r196)
  Log2 fold-change of gene expression: GADPH: −2.0
4th listing (r197)
  Log2 fold-change of gene expression: ACTB: −0.1
